Source: US20130072505A1, “6,9-Disubstituted Purine Derivatives and Their Use for Treating Skin” (priority 2006, published 2013)

What was measured:
[1] = test system: Human forskin fibroblasts (cell line BJ); assay: in vitro cytotoxic activity, MTT assay; type: cell-based; details: 72 hours; BJ fibroblasts at middle passage
Procedure: In vitro cytotoxic activity of several of the 6,9-disubstituted purine derivatives of this invention against human diploid fibroblasts was determined by standard MTT assay optimized for 96-well plates. The assay is based on spectrofotometric measurement of the product of metabolic conversion of MTT by mitochondria of living cells.
Human forskin fibroblasts (cell line BJ) at middle passage were maintained in 75 cm^2 plastic tissue culture flasks and cultured in cell culture medium (DMEM with 5 g/l glucose, 2 mM glutamine, 100 U/ml penicillin, 100 μg/ml streptomycin, 10% fetal calf serum, and sodium bicarbonate).
About 5,000 cells were seeded per well of the 96-well plate. After 24 hours the cell culture medium was replaced with the cell culture medium containing a test compound. The test compounds were evaluated at six 2-fold dilutions. The highest concentration used in the present study was usually 200 μM. In the case of compounds with limited solubility in the culture medium the highest concentration was adjusted. Every test compound was examined in five replicates. Cells with the test compounds were incubated for 72 hours at 37° C. in 5% CO2 atmosphere and 100% humidity. At the end of the incubation period, the culture medium was replaced with the cell culture medium containing MTT (0.5 mg/ml) and cells were incubated for another 3 hours. The formazan formed was solubilized by DMSO and absorbance at 570 nm was measured. Ability of the tested compounds to inhibit MTT reducing activity of the cells was calculated as IC=(Acompound exposed well−mean Ablank)/(mean Acontrol well−meanAblank)×100%. IC10, the drug concentration causing 10% decrease in MTT reducing activity, was calculated from the obtained dose response curves.

[2] = test system: Chinese hamster ovary (CHO) cells; assay: In Vitro Chromosome Aberration Screening Assay; type: cell-based; details: 0.272 to 272 μg/ml; absence and presence of S9
Procedure: 6-Furfurylamino-9-(2-tetrahydropyranyl)purine was tested in the chromosome aberration screening assay using Chinese hamster ovary (CHO) cells in both the absence and presence of an Acroclor-induced S9 activation system to evaluate its clastogenic potential. DMSO was used as the solvent and the dose rate ranged from 0.272 to 272 μg/ml.

Compound: c1coc(CNc2ncnc3c2ncn3C2CCCCO2)c1 (centres unmarked) [6-furfurylamino-9-(2-tetrahydropyranyl)purine]
- IC10 (concentration causing 10% decrease in MTT reducing activity) [1]: >200 µM
- induction of structural and numerical chromosome aberrations [2]: negative for the induction of structural and numerical chromosome aberrations
